Test results reported in patent publication US20230129359A1, “MUSCARINIC RECEPTOR 4 ANTAGONISTS AND METHODS OF USE” (Neurocrine Biosciences, Inc., priority 2020, published 2023).

Each molecule was assayed against T1, human M4 receptor (Homo sapiens, UniProt P08173) (assay: Radioligand ([3H]N-methylscopolamine) binding assay, membranes from CHO cells expressing human M4 receptor). Conditions: Ki against human M4 receptor; membranes from CHO cells; tritiated N-methylscopolamine 1.5 nM; read-out: K.
T1 construct: expressed in transfected cells; host or cells: CHO cells
T1 sequence (P08173 1-479): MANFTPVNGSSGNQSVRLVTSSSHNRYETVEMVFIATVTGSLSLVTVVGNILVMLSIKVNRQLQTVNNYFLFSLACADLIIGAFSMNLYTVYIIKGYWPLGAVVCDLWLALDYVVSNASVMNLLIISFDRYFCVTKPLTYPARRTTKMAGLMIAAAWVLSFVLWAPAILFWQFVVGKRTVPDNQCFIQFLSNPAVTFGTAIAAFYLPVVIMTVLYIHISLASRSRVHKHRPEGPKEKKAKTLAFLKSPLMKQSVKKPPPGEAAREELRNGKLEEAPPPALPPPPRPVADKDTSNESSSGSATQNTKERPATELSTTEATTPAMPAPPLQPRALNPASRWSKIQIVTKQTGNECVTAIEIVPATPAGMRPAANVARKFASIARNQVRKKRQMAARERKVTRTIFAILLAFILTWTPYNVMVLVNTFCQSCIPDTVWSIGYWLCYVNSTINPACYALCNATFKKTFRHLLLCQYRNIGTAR
Summary of the method: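 Ki values derive from displacement of tritiated N-methylscopolamine (1.5 nM) from human M4 receptor in CHO membranes. Membranes, radioligand and twelve-point compound series were incubated together at 37 °C for 90 minutes in pH 7.4 HEPES/NaCl/MgCl2/EDTA buffer. Rapid vacuum filtration over polyethylenimine-pretreated filters was followed by radioactivity counting.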

| SMILES | Ki |
| --- | --- |
| O=C(OC1CC2(C1)CN(Cc1ccccc1)C2)N1CCN(c2ccc(C(F)(F)F)cc2)CC1 [Compound 125, 2-benzyl-2-azaspiro[3.3]heptan-6-yl 4-[4-(trifluoromethyl)phenyl]pipera-zine-1-carboxylate] | 100 to 1000 nM |
| C[C@@H]1CN(c2ncc(C(F)(F)F)cn2)[C@@H](C)CN1C(=O)OC1CC2(C1)CN(Cc1ccc(Cl)cc1)C2 [Compound 482, 2-[(4-chlorophenyl)methyl]-2-azaspiro[3.3]heptan-6-yl (2R,5S)-2,5-dimethyl-4-[5-(trifluoromethyl)pyrimidin-2-yl]piperazine-1-carboxylate] | < 10 nM |
| C[C@@H]1CN(c2ccc([N+](=O)[O-])cn2)C[C@@H](C)N1C(=O)OC1CC2(C1)CN(Cc1ccccc1)C2 [Compound 164, 2-benzyl-2-azaspiro[3.3]heptan-6-yl (2R,6R)-2,6-dimethyl-4-(5-nitropyridin-2-yl)piperazine-1-carboxylate] | 100 to 1000 nM |
| C[C@@H]1CN(c2ccc(OC(F)(F)F)c(C#N)c2)CCN1C(=O)NC1CC2(C1)CN(Cc1ccccc1)C2 [Compound 13, (2R)-N-{2-benzyl-2-azaspiro[3.3]heptan-6-yl}-4-[3-cyano-4-(trifluoromethoxy)phenyl]-2-methylpiperazine-1-carboxamide] | < 10 nM |
| C[C@@H]1CN(c2ccc(C(F)(F)F)cc2)C[C@@H](C)N1C(=O)NC1CC2(C1)CN(Cc1ccccc1)C2 [Compound 51, (2R,6R)-N-{2-benzyl-2-azaspiro[3.3]heptan-6-yl}-2,6-dimethyl-4-[4-(trifluoromethyl)phenyl]pipera-zine-1-carboxamide] | < 10 nM |
| C[C@@H]1CN(c2ncc(OC(F)F)cn2)C[C@H](C)N1C(=O)OC1CC2(C1)CN(Cc1ccc(F)cc1)C2 [Compound 465, 2-[(4-fluorophenyl)methyl]-2-azaspiro[3.3]heptan-6-yl (2R,6S)-4-[5-(difluoromethoxy)pyrimidin-2-yl]-2,6-dimethylpiperazine-1-carboxylate] | < 10 nM |
| Cc1ccc(CN2CC3(CC(NC(=O)N4[C@H](C)CN(c5ncc(C(F)(F)F)cn5)C[C@@H]4C)C3)C2)s1 [Compound 339, (2R,6S)-2,6-dimethyl-N-{2-[(5-methylthiophen-2-yl)methyl]-2-azaspiro[3.3]heptan-6-yl}-4-[5-(trifluoromethyl)pyrimidin-2-yl]piperazine-1-carboxamide] | < 10 nM |

Continued, values first:

| Ki | SMILES |
| --- | --- |
| 10 to 100 nM | C[C@@H]1CN(c2ncc(C(F)(F)F)cn2)C[C@H](C)N1C(=O)NC1CC2(C1)CN(Cc1ccc(Cl)nc1)C2 [Compound 307, (2R,6S)-N-{2-[(6-chloropyridin-3-yl)methyl]-2-azaspiro[3.3]heptan-6-yl}-2,6-dimethyl-4-[5-(trifluoromethyl)pyrimidin-2-yl]piperazine-1-carboxamide] |
| 10 to 100 nM | C[C@@H]1CN(c2ncc(C(F)(F)F)cn2)C[C@H](C)N1C(=O)NC1CC2(C1)CN(Cc1cccnc1)C2 [Compound 303, (2R,6S)-2,6-dimethyl-N-[2-(pyridin-3-ylmethyl)-2-azaspiro[3.3]heptan-6-yl]-4-[5-(trifluoromethyl)pyrimidin-2-yl]piperazine-1-carboxamide] |
| < 10 nM | C[C@@H]1CN(c2nc3ccccc3s2)[C@@H](C)CN1C(=O)NC1CC2(C1)CN(Cc1ccccc1)C2 [Compound 244, (2R,5S)-4-(1,3-benzothiazol-2-yl)-N-{2-benzyl-2-azaspiro[3.3]heptan-6-yl}-2,5-dimethylpiperazine-1-carboxamide] |
| 10 to 100 nM | C[C@@H]1CN(c2cnc3ccccc3n2)C[C@H](C)N1C(=O)OC1CC2(C1)CN(Cc1ccccc1)C2 [Compound 172, 2-benzyl-2-azaspiro[3.3]heptan-6-yl (2R,6S)-2,6-dimethyl-4-(quinoxalin-2-yl)piperazine-1-carboxylate] |
| 100 to 1000 nM | COc1ccc2nc(N3C[C@@H](C)N(C(=O)OC4CC5(C4)CN(Cc4ccccc4)C5)C[C@H]3C)cnc2c1 [Compound 201, 2-benzyl-2-azaspiro[3.3]heptan-6-yl (2R,5R)-4-(6-methoxyquinoxalin-2-yl)-2,5-dimethylpiperazine-1-carboxylate] |
